# Data as given in patent US9029337B2, “Modulation of factor 7 expression” (Isis Pharmaceuticals, Inc., priority 2007, dated 2015).
# e = 2'-O-(2-methoxyethyl) (MOE); d = 2'-deoxy (DNA)
# What was measured:
# Format in all cases: in vivo, mouse
# [1] = system: platelet factor-4 (PF-4); assay: Thrombus formation by real-time RT-PCR quantification of PF-4 in the FeCl3 induced venous thrombosis model; details: Example 16, BALB/c mice, vena cava
# [2] = system: BALB/c mice; assay: Tail bleeding assay; details: mouse, in vivo
# Procedure: (§1) Mice not receiving treatment with FeCl3 solution were evaluated in a tail bleeding chamber. Mice were placed into the bleeding chamber two days after the final treatment of ISIS 403102 or PBS. Mice were anesthetized in the chamber with isofluorane and a small piece of tail (approximately 4 mm from the tip) was cut with sterile scissors. The cut tail was immediately placed in a 15 mL Falcon tube filled with approximately 10 mL of 0.9% NaCl buffer solution warmed to 37° C. The blood was collected over the course of 40 minutes. The saline filled tubes were weighed both before and after bleeding.
# Tail-bleeding was measured to observe whether treatment with ISIS 403102 or warfarin causes internal hemorrhage in mice. ISIS 403102 and warfarin (Coumadin®) were evaluated in the tail bleeding assay. Six groups of BALB/c mice were treated with 1.25 mg/kg, 2.5 mg/kg, 5 mg/kg, 10 mg/kg, 20 mg/kg, or 40 mg/kg of ISIS 403102, administered subcutaneously twice a week for 3 weeks. An additional 6 groups of BALB/c mice were treated with 0.5 mg/kg, 1 mg/kg, 2 mg/kg, 3 mg/kg, 4 mg/kg, and 5 mg/kg of warfarin, administered intraperioneally daily for 6 days. A separate control group of BALB/c mice was treated with PBS, administered subcutaneously twice a week for 3 weeks.
# as §1, with “Two” for “Mice not receiving treatment with FeCl3 solution were evaluated in a tail bleeding chamber. Mice were placed into the bleeding chamber two”, “403102, warfarin,” for “403102”, “PBS, mice were placed in a tail bleeding chamber.” for “PBS.”
# ISIS 403102 and Apixaban were evaluated in BALB/c mice. In a first group of BALB/c mice, 40 mg/kg of ISIS 403102 was administered subcutaneously twice a week for 3 weeks. An additional 3 groups of BALB/c mice were treated with 5 mg/kg and 10 mg/kg of Apixaban, administered in a single intraperitoneal dose, and 10 mg/kg of Apixaban administered as a single subcutaneous dose. A control group of BALB/c mice was treated with PBS, administered subcutaneously twice a week for 3 weeks.
# as §1, with “Two” for “Mice not receiving treatment with FeCl3 solution were evaluated in a tail bleeding chamber. Mice were placed into the bleeding chamber two”, “PBS, mice were placed in a tail bleeding chamber. Mice from the groups treated with Apixaban were analyzed 30 minutes after the single dose.” for “PBS.”, “weighed” for “weighed both”
# [3] = system: murine Factor 7 mRNA; assay: Single dose pharmacokinetic assay: liver Factor 7 mRNA in BALB/c mice; details: single dose 50 mg/kg; for % Inhibition: liver Factor 7 mRNA, BALB/c mice
# Procedure: The half-life and duration of action of ISIS 403102 in mice was evaluated. A group of 27 BALB/c mice was injected with 50 mg/kg of ISIS 403102. Three mice from the group were sacrificed at days 1, 2, 3, 4, 6, 8, 12, 24, and 56 after the single dose of ISIS 403102 was administered. A control group of 3 mice was injected with a single dose of PBS, and mice in this group were sacrificed on day 1. Mice in all groups were sacrificed by cervical dislocation following anesthesia with 150 mg/kg ketamine mixed with 10 mg/kg xylazine administered by intraperitoneal injection. Liver was harvested for RNA analysis and plasma was collected for clotting analysis (PT and aPTT).
# RNA was extracted from liver tissue for real-time RT-PCR analysis of Factor 7. Results are presented as percent inhibition of Factor 7, relative to PBS control. […] Results are presented as percent inhibition of Factor 7, relative to control.
sequence,measurement,setting,value
"CCATAGAACAGCTTCACAGG (sugars from the 5' end e5 d10 e5, backbone and methylation of C not given here) [ISIS 403102]",PF-4 (percentage of PF-4 as compared to the PBS-treated control groups),[1]; 1 mg/kg s.c. twice a week for 3 weeks,120%
same,PF-4 (percentage of PF-4 as compared to the PBS-treated control groups),[1]; 3 mg/kg s.c. twice a week for 3 weeks,112%
same,amount of bleeding in comparison to PBS treated mice,[2],slight decrease in the amount of bleeding
same,bleeding as compared to PBS control mice,[2],did not significantly affect bleeding
same,amount of bleeding in comparison to PBS treated mice,[2]; 50 mg/kg,Bleeding was the same
same,"Blood (g), tail bleeding","[2]; sc, 40 mg/kg",0.10 g
same,bleeding compared to PBS treated mice,"[2]; sc, 40 mg/kg",less bleeding than PBS treated mice
same,% Inhibition,"[3]; day 1, relative to PBS control",61%
same,% Inhibition,"[3]; day 2, relative to PBS control",87%
same,% Inhibition,"[3]; day 3, relative to PBS control",92%
same,% Inhibition,"[3]; day 4, relative to PBS control",92%
same,% Inhibition,"[3]; day 6, relative to PBS control",86%
same,% Inhibition,"[3]; day 8, relative to PBS control",80%
same,% Inhibition,"[3]; day 12, relative to PBS control",72%
same,% Inhibition,"[3]; day 24, relative to PBS control",11%
same,% Inhibition,"[3]; day 56, relative to PBS control",0%
same,duration of action,[3],at least 24 days
same,peak effect,[3],~4 days
same,inhibition of Factor 7 mRNA,[3]; day 4,92%
same,inhibition of Factor 7 mRNA,[3]; day 24,11%
same,Factor 7 mRNA levels,[3]; day 56,equal to that of the PBS control
